Measurements: patent publication US7625894B2, “Pyrrolo[2,3-d]Pyrimidines as Protein Tyrosine Kinase Inhibitors” (Novartis AG, priority 2004, dated 2009)

Each compound was assayed against T1, Bcr-Abl (Homo sapiens, UniProt P00519) (assay: Test for activity against Bcr-Abl (phosphorylation ELISA in 32D-bcr/abl cells)). Details: 32D cells transfected with p210 Bcr-Abl; ELISA of Bcr-Abl phosphorylation; read-out: bcrabl32DcEL/ Average<32Dp210IC50 [umol l−1]>.
T1 construct: host or cells: murine myeloid progenitor cell line 32Dcl3 (32D-bcr/abl); the other entry of the earlier key: BCR (P11274, Breakpoint cluster region protein)
T1 sequence (P00519 28-1130 limits assumed): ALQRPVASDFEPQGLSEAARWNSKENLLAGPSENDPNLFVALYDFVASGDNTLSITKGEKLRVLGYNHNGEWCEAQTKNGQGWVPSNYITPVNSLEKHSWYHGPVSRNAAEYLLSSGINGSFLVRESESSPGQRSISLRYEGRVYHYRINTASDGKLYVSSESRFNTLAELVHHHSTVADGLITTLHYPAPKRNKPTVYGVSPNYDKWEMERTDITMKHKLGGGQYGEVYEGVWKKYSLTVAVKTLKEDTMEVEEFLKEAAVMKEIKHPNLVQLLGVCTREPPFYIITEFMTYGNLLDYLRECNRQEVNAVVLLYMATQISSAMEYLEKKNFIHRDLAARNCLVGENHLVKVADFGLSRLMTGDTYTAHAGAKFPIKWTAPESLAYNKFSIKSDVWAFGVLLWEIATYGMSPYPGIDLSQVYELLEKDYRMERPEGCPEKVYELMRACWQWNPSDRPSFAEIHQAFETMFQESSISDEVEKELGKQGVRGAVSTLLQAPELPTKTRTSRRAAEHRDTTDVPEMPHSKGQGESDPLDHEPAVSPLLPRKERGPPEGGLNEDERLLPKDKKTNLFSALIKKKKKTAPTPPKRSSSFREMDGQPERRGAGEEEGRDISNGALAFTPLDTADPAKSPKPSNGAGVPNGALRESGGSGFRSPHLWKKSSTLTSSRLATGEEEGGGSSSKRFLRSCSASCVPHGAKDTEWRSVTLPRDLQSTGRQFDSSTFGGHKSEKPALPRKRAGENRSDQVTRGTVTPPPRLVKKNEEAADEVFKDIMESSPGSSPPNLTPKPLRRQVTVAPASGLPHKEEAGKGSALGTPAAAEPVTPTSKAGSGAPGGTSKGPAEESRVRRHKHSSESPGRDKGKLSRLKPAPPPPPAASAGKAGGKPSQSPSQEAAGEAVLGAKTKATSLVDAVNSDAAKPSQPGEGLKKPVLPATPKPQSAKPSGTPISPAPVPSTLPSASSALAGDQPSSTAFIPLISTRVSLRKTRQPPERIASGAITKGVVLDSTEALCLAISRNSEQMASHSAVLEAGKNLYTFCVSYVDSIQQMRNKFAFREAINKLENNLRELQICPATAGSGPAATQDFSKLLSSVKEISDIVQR
Format: cell-based, murine
Experimental: Test for activity against Bcr-Abl. The murine myeloid progenitor cell line 32Dcl3 transfected with the p210 Bcr-Abl expression vector pGDp210Bcr/Abl (32D-bcr/abl) was obtained from J. Griffin (Dana Faber Cancer Institute, Boston, Mass., USA). The cells express the fusion Bcr-Abl protein with a constitutively active Abl kinase and proliferate growth factor independent. The cells are expanded in RPMI 1640 (AMIMED), 10% fetal calf serum, 2 mM glutamine (Gibco) (“complete medium”), and a working stock is prepared by freezing aliquots of 2×10^6 cells per vial in freezing medium (95% FCS, 5% DMSO (SIGMA)). After thawing, the cells are used during maximally 10-12 passages for the experiments.
For cellular assays, compounds are dissolved in DMSO and diluted with complete medium to yield a starting concentration of 10 μM followed by preparation of serial 3-fold dilutions in complete medium. 200,000 32D-Bcr/Abl cells in 50 μL complete medium are seeded per well in 96 well round bottom tissue culture plates. 50 μL per well of serial 3-fold dilutions of the test compound are added to the cells in triplicates. Untreated cells are used as control. The compound is incubated together with the cells for 90 min at 37° C., 5% CO2, followed by centrifugation of the tissue culture plates at 1300 rpm (Beckman GPR centrifuge) and removal of the supernatants by careful aspiration taking care not to remove any of the pelleted cells. The cell pellets are lysed by addition of 150 μL lysis buffer (50 mM Tris/HCl, pH 7.4, 150 mM sodium chloride, 5 mM EDTA, 1 mM EGTA, 1% NP-40, 2 mM sodium ortho-vanadate, 1 mM PMSF, 50 μg/mL aprotinin and 80 μg/mL leupeptin) and either used immediately for the ELISA or stored frozen in the plates at −20° C. until usage.
Black ELISA plates (Packard HTRF-96 black plates) are precoated over night at 4° C. with 50 ng/well of the rabbit polyclonal anti-abl-SH3 domain Ab 06-466 from Upstate in 50 μL PBS. After washing 3 times with 200 μL/well PBS containing 0.05% Tween20 (PBST) and 0.5% TopBlock (Juro), residual protein binding sites are blocked with 200 μL/well PBST, 3% TopBlock for 4 h at room temperature followed by incubation with 50 μL lysates of untreated or compound-treated cells (20 μg total protein per well) for 3-4 h at 4° C. After 3 washings, 50 μL/well anti-phosphotyrosine Ab PY20(AP) labeled with alkaline phosphatase (Zymed) diluted to 0.2 μg/mL in blocking buffer is added and incubated over night (4° C.). For all incubation steps the plates are covered with plate sealers (Costar). Finally, the plates are washed another three times with washing buffer and once with deionized water before addition of 90 μL/well of the AP-substrate CDPStar RTU with Emerald II. The plates, now sealed with Packard TopSeal™-A plate sealers, are incubated for 45 min at room temperature in the dark and luminescence is quantified by measuring counts per second (CPS) with a Packard Top Count Microplate Scintillation Counter (Top Count). The difference between the ELISA-readout (CPS) obtained for with the lysates of the untreated 32D-Bcr/Abl cells and the readout for the assay-background (all components, but without cell lysate) is calculated and taken as 100% reflecting the constitutively phosphorylated Bcr-Abl protein present in these cells. The activity of the compound on the Bcr-Abl kinase activity is expressed as percent reduction of the Bcr-Abl phosphorylation. The values for the IC50 and IC90 are determined from the dose response curves by graphical extrapolation.

Row | Compound | IC50 [nM]
1 | CN1CCN(C(=O)c2ccc(-c3cc4c(N(C)C)ncnc4[nH]3)cc2)CC1 [Example 3, [4-(4-Dimethylamino-7H-pyrrolo[2,3-d]pyrimidin-6-yl)-phenyl]-(4-methyl-piperazin-1-yl)-methanone] | 797
2 | CN1CCN(Cc2ccc(-c3cc4c(N(C)C)ncnc4[nH]3)cc2)CC1 [Example 4, Dimethyl-{6-[4-(4-methyl-piperazin-1-ylmethyl)-phenyl]-7H-pyrrolo[2,3-d]pyrimidin-4-yl}-amine] | 729
3 | CN(C)c1ncnc2[nH]c(-c3ccc(C(=O)NCCCN4CCOCC4)cc3)cc12 [Example 7, 4-(4-Dimethylamino-7H-pyrrolo[2,3-d]pyrimidin-6-yl)-N-(3-morpholin-4-yl-propyl)-benzamide] | 917
4 | CNc1ncnc2[nH]c(-c3ccc(CN4CCN(C)CC4)cc3)cc12 [Example 16, Methyl-{6-[4-(4-methyl-piperazin-1-ylmethyl)-phenyl]-7H-pyrrolo[2,3-d]pyrimidin-4-yl}-amine] | 50.8
5 | CCCNc1ncnc2[nH]c(-c3ccc(CN4CCN(C)CC4)cc3)cc12 [Example 18, {6-[4-(4-Methyl-piperazin-1-ylmethyl)-phenyl]-7H-pyrrolo[2,3-d]pyrimidin-4-yl}-propyl-amine] | 939
6 | CCCN(C)c1ncnc2[nH]c(-c3ccc(CN4CCN(C)CC4)cc3)cc12 [Example 19, Methyl-{6-[4-(4-methyl-piperazin-1-ylmethyl)-phenyl]-7H-pyrrolo[2,3-d]pyrimidin-4-yl}-propyl-amine] | 2070
7 | CN(C)c1ncnc2[nH]c(-c3ccc(Cn4ccnc4)cc3)cc12 [Example 24, [6-(4-Imidazol-1-ylmethyl-phenyl)-7H-pyrrolo[2,3-d]pyrimidin-4-yl]-dimethylamine] | 790
8 | CN(C)c1ncnc2[nH]c(-c3ccc(CNCCCO)cc3)cc12 [Example 28, 3-[4-(4-Dimethylamino-7H-pyrrolo[2,3-d]pyrimidin-6-yl)-benzylamino]-propan-1-ol] | 409
9 | CN(C)c1ncnc2[nH]c(-c3ccc(C(C)(C)O)cc3)cc12 [Example 34, 2-[4-(4-Dimethylamino-7H-pyrrolo[2,3-d]pyrimidin-6-yl)-phenyl]-propan-2-ol] | 944

The remaining lines, values ahead:

Row | IC50 [nM] | Compound
10 | 935 | CN(C)c1ncnc2[nH]c(-c3ccc(C(=O)N4CCOCC4)cc3)cc12 [Example 6, [4-(4-Dimethylamino-7H-pyrrolo[2,3-d]pyrimidin-6-yl)-phenyl]-morpholin-4-yl-methanone]
11 | 1630 | CCCNc1ncnc2[nH]c(-c3ccc(C(=O)N4CCN(C)CC4)cc3)cc12 [Example 17, (4-Methyl-piperazin-1-yl)-[4-(4-propylamino-7H-pyrrolo[2,3-d]pyrimidin-6-yl)-phenyl]-methanone]
12 | ≥ 10000 | CN(C)c1ncnc2[nH]c(-c3ccc(Cc4ccc[nH]4)cc3)cc12 [Example 25, Dimethyl-{6-[4-(1H-pyrrol-2-ylmethyl)-phenyl]-7H-pyrrolo[2,3-d]pyrimidin-4-yl}-amine]
13 | 903 | CN(C)c1ncnc2[nH]c(-c3ccc(Cn4cnnn4)cc3)cc12 [Example 27, Dimethyl-[6-(4-tetrazol-1-ylmethyl-phenyl)-7H-pyrrolo[2,3-d]pyrimidin-4-yl]-amine]
14 | 274 | COCCN(C)Cc1ccc(-c2cc3c(N(C)C)ncnc3[nH]2)cc1 [Example 29, [6-(4-{[(2-Methoxy-ethyl)-methyl-amino]-methyl}-phenyl)-7H-pyrrolo[2,3-d]pyrimidin-4-yl]-dimethyl-amine]
15 | 2430 | CCC(O)(CC)c1ccc(-c2cc3c(NCCCn4cccc4)ncnc3[nH]2)cc1 [Example 33, 3-{4-[4-(3-Pyrrol-1-yl-propylamino)-7H-pyrrolo[2,3-d]pyrimidin-6-yl]-phenyl}-pentan-3-ol]
16 | 292 | [4-(4-Methylamino-7H-pyrrolo[2,3-d]pyrimidin-6-yl)-phenyl]-morpholin-4-yl-methanone [Example 2]
